Drawing on patent US20250206780A1, “CYCLIC PEPTIDES AND THEIR USE FOR THE TREATMENT OF DISEASES ASSOCIATED WITH DICARBONYLS LIKE METHYLGLYOXAL” (UNIVERSITÄT HEIDELBERG, priority 2022, published 2025), this text covers half-life and plasma half-life for two compounds.

The conditions of series [1]: Bowman et al., 1996; cited from earlier work.
Details of series [2]: species or system mice. The conditions noted are these: mouse, in vivo. The method, then: Animals were injected with Dap3 and blood was collected into EDTA containing tubes at indicated time points with n=3 per time point. After centrifugation EDTA plasma was stored at −80° C. until analysis. Dap3 was quantified by LC MS/MS as described in section 6.
6. Detection of Dap3 and MG-Modified Dap3 by LC-MS/MS A Dap3-MG standard was prepared by incubation of Dap3 with methylglyoxal in 0.1 M phosphate buffer followed by purification by preparative HPLC. The peptide CycK(e-Hdd)R4E was employed as internal standard which was added to the standard curve and plasma samples prior to precipitation. Prior to analysis 2 parts acetonitrile were added to the plasma, vortexed and centrifuged for 10 min at 13,000 g. The supernatant was analysed using an ACQUITY UPLC I fitted with a Acquity UPLC BEH C18 column (Waters, 2.1 mm*100 mm, […]) with a pre-column (2.1×5 mm, 1.7 μm) and a Xevo TQ-XS mass spectrometer (Waters, USA). Solvent A was water+0.1% formic acid and solvent B was acetonitrile+0.1% formic acid. A linear gradient from 0-100% solvent B at a flow rate of 0.2 ml/min over 20 min and a column temperature of 30° C. was used. The detailed parameters for the quantification of Dap3, Dap3-MG and CycK(e-Hdd)R4E, are described below

Starred links: 1 amine or outer side, 2 acyl side, 3 side chain; linkers in the order of their positions; H or OH if unused. Positions of bridges follow the written chain, without caps; N, C: chain ends. Residues, ends and D or L forms follow the SMILES beside them. Groups on a side chain read outwards from the residue. *: point of attachment. d(γGlu) = O=C(O)[C@@H](CCC(=O)[*:2])N[*:1]; C16 diacid = O=C(O)CCCCCCCCCCCCCCC(=O)*; Dap = NC[C@H](N)C(=O)O

With `N=C(N)NN` [Aminoguanidine], the half-life entry in series [1] is “very short”.

Turning to `NC[C@H](N)C(=O)NCCCC[C@@H]1NC(=O)[C@H](CCCCNC(=O)[C@@H](N)CN)NC(=O)[C@H](CCC(=O)O)NC(=O)[C@H](CCCCNC(=O)[C@@H](N)CN)NC(=O)[C@H](CCCCNC(=O)CC[C@@H](NC(=O)CCCCCCCCCCCCCCC(=O)O)C(=O)O)NC(=O)CC[C@@H](C(=O)O)NC1=O` [Dap3] (K([d(γGlu)-C16 diacid])K(Dap)EK(Dap)K(Dap)E-OH; lactam N-6), in series [2], the plasma half-life entry is “long plasma half-life”.
